# Results: PubChem BioAssay AID226 (DTP/NCI, 2004)
# “And” between values parts separate entries of the source, which are not always exact repeats. Equal values may be shown once. Toxic doses and inconclusive results are not listed.
# System: B6C3F1 mice, intracerebral ependymoblastoma, median survival T/C
# Experiment: NCI In Vivo Anticancer Drug Screen. Data for tumor model Ependymoblastoma (intracerebral) in B6C3F1 mice
# Settings: endpoint: median survival time, higher = longer survival
# Method: The antitumor activity of compounds was measured in mice bearing transplantable tumors. Survival or tumor size were measured and the results are expressed as the measurement made in the treated group (T) divided by the measurement made in the vehicle treated control group (C). The tumor model used in this assay is Ependymoblastoma (intracerebral) in B6C3F1 mice
# [1] = dose: 2.0 mg/kg/injection, schedule: Q01DX005 (ip), vehicle: Klucel (hydroxypropylcellulose) (HPC)
# [2] = dose: 4.0 mg/kg/injection, schedule: Q01DX005 (ip), vehicle: Klucel (hydroxypropylcellulose) (HPC)
# [3] = dose: 32.0 mg/kg/injection, schedule: Q01DX005 (ip), vehicle: saline with Tween-80
# [4] = dose: 0.5 mg/kg/injection, schedule: Q01DX005 (ip), vehicle: saline
# [5] = dose: 2.0 mg/kg/injection, schedule: Q01DX005 (ip), vehicle: saline
# [6] = dose: 4.0 mg/kg/injection, schedule: Q01DX001 (ip), vehicle: saline
# [7] = dose: 8.0 mg/kg/injection, schedule: Q01DX001 (ip), vehicle: saline
smiles,measurement,setting,value
OC(CBr)C(O)C(O)C(O)CBr (stereo not given),T/C,[1],102 % of control
same,T/C,[2],106 % of control
same,T/C,"dose: 50.0 mg/kg/injection, schedule: Q01DX005 (ip), vehicle: saline",122 % of control
same,T/C,"dose: 100.0 mg/kg/injection, schedule: Q01DX005 (ip), vehicle: Klucel (hydroxypropylcellulose) (HPC)",97 % of control
same,T/C,"dose: 200.0 mg/kg/injection, schedule: Q01DX005 (ip), vehicle: Klucel (hydroxypropylcellulose) (HPC)",109 % of control
same,T/C,"dose: 200.0 mg/kg/injection, schedule: Q01DX005 (ip), vehicle: saline",118 % of control and 195 % of control and 233 % of control
C#CCN(C)/N=N/c1nc[nH]c1C(N)=O,T/C,[3],150 % of control
same,T/C,"dose: 128.0 mg/kg/injection, schedule: Q01DX005 (ip), vehicle: saline with Tween-80",157 % of control
COc1cc([C@@H]2c3cc4c(cc3[C@@H](OC3OC5CO[C@@H](c6cccs6)OC5C(O)C3O)[C@H]3COC(=O)[C@H]23)OCO4)cc(OC)c1O (stereo not given in full),T/C,"dose: 0.25 mg/kg/injection, schedule: Q01DX005 (ip), vehicle: saline",103 % of control
same,T/C,[4],90 % of control
same,T/C,"dose: 1.0 mg/kg/injection, schedule: Q12HX006 (ip), vehicle: saline",92 % of control
same,T/C,[5],118 % of control
same,T/C,"dose: 2.0 mg/kg/injection, schedule: Q01DX005 (oral), vehicle: saline",122 % of control
same,T/C,"dose: 2.0 mg/kg/injection, schedule: Q12HX002 (ip), vehicle: saline",93 % of control
same,T/C,"dose: 2.0 mg/kg/injection, schedule: Q12HX006 (ip), vehicle: saline",119 % of control
same,T/C,[6],100 % of control and 105 % of control
same,T/C,"dose: 4.0 mg/kg/injection, schedule: Q01DX005 (oral), vehicle: saline",124 % of control
same,T/C,"dose: 4.0 mg/kg/injection, schedule: Q12HX002 (ip), vehicle: saline",93 % of control
same,T/C,"dose: 4.0 mg/kg/injection, schedule: Q12HX006 (ip), vehicle: saline",119 % of control
same,T/C,[7],110 % of control and 111 % of control and 118 % of control
same,T/C,"dose: 8.0 mg/kg/injection, schedule: Q01DX005 (oral), vehicle: saline",113 % of control
same,T/C,"dose: 8.0 mg/kg/injection, schedule: Q12HX002 (ip), vehicle: saline",90 % of control
same,T/C,"dose: 8.0 mg/kg/injection, schedule: Q12HX006 (ip), vehicle: saline",122 % of control
same,T/C,"dose: 16.0 mg/kg/injection, schedule: Q01DX001 (ip), vehicle: saline",112 % of control and 115 % of control and 118 % of control
same,T/C,"dose: 16.0 mg/kg/injection, schedule: Q01DX001 (oral), vehicle: saline",94 % of control and 101 % of control
same,T/C,"dose: 16.0 mg/kg/injection, schedule: Q12HX002 (ip), vehicle: saline",93 % of control
same,T/C,"dose: 32.0 mg/kg/injection, schedule: Q01DX001 (ip), vehicle: saline",104 % of control and 109 % of control and 117 % of control
same,T/C,"dose: 32.0 mg/kg/injection, schedule: Q01DX001 (oral), vehicle: saline",109 % of control and 110 % of control (2×)
same,T/C,"dose: 64.0 mg/kg/injection, schedule: Q01DX001 (oral), vehicle: saline",104 % of control and 109 % of control and 115 % of control
same,T/C,"dose: 128.0 mg/kg/injection, schedule: Q01DX001 (oral), vehicle: saline",97 % of control and 109 % of control
Nc1nc(=S)c2ncn(C3OC(COC(=O)c4ccc(Cl)cc4)C(OC(=O)c4ccc(Cl)cc4)C3OC(=O)c3ccc(Cl)cc3)c2[nH]1 (stereo not given),T/C,"dose: 18.75 mg/kg/injection, schedule: Q01DX005 (ip), vehicle: Klucel (hydroxypropylcellulose) (HPC)",101 % of control
same,T/C,"dose: 37.5 mg/kg/injection, schedule: Q01DX005 (ip), vehicle: Klucel (hydroxypropylcellulose) (HPC)",102 % of control
same,T/C,"dose: 75.0 mg/kg/injection, schedule: Q01DX005 (ip), vehicle: Klucel (hydroxypropylcellulose) (HPC)",98 % of control and 115 % of control
O=P1(N(CCCl)CCCl)NC(OO)CCO1 (stereo not given),T/C,"dose: 40.0 mg/kg/injection, schedule: Q01DX001 (ip), vehicle: saline",102 % of control
same,T/C,"dose: 80.0 mg/kg/injection, schedule: Q01DX001 (ip), vehicle: saline",108 % of control
same,T/C,"dose: 160.0 mg/kg/injection, schedule: Q01DX001 (ip), vehicle: saline",113 % of control
CC(CN1CC(=O)NC(=O)C1)N1CC(=O)NC(=O)C1 (stereo not given),T/C,"dose: 8.0 mg/kg/injection, schedule: Q01DX001 (ip), vehicle: Klucel (hydroxypropylcellulose) (HPC)",101 % of control and 102 % of control
same,T/C,"dose: 16.0 mg/kg/injection, schedule: Q01DX001 (ip), vehicle: Klucel (hydroxypropylcellulose) (HPC)",104 % of control and 86 % of control
same,T/C,"dose: 32.0 mg/kg/injection, schedule: Q01DX001 (ip), vehicle: Klucel (hydroxypropylcellulose) (HPC)",101 % of control and 102 % of control
same,T/C,"dose: 64.0 mg/kg/injection, schedule: Q01DX001 (ip), vehicle: Klucel (hydroxypropylcellulose) (HPC)",103 % of control and 109 % of control
same,T/C,"dose: 128.0 mg/kg/injection, schedule: Q01DX001 (ip), vehicle: Klucel (hydroxypropylcellulose) (HPC)",99 % of control and 103 % of control
CN(C)N=Nc1ccc(C(=O)O)cc1,T/C,[3],122 % of control
CCCCCCC1CC1C(=O)NCCCCCN=C(N)N (stereo not given),T/C,"dose: 10.0 mg/kg/injection, schedule: Q01DX005 (ip), vehicle: Klucel (hydroxypropylcellulose) (HPC)",96 % of control
same,T/C,"dose: 20.0 mg/kg/injection, schedule: Q01DX005 (ip), vehicle: Klucel (hydroxypropylcellulose) (HPC)",102 % of control
same,T/C,"dose: 40.0 mg/kg/injection, schedule: Q01DX005 (ip), vehicle: Klucel (hydroxypropylcellulose) (HPC)",101 % of control
NC(CSC(c1ccccc1)(c1ccccc1)c1ccccc1)C(=O)O (stereo not given),T/C,"dose: 32.0 mg/kg/injection, schedule: Q01DX005 (ip), vehicle: Klucel (hydroxypropylcellulose) (HPC)",107 % of control
same,T/C,"dose: 64.0 mg/kg/injection, schedule: Q01DX005 (ip), vehicle: Klucel (hydroxypropylcellulose) (HPC)",107 % of control
same,T/C,"dose: 512.0 mg/kg/injection, schedule: Q01DX001 (ip), vehicle: Klucel (hydroxypropylcellulose) (HPC)",108 % of control
same,T/C,"dose: 516.0 mg/kg/injection, schedule: Q01DX001 (ip), vehicle: Klucel (hydroxypropylcellulose) (HPC)",86 % of control
N[C@@H](Cc1ccc(N(CCCl)CCCl)cc1)C(=O)O,T/C,"dose: 0.5 mg/kg/injection, schedule: Q01DX001 (ip), vehicle: saline",102 % of control
same,T/C,[4],93 % of control
same,T/C,"dose: 1.0 mg/kg/injection, schedule: Q01DX001 (ip), vehicle: saline",98 % of control and 102 % of control and 105 % of control
same,T/C,"dose: 1.0 mg/kg/injection, schedule: Q01DX005 (ip), vehicle: saline",107 % of control
same,T/C,"dose: 2.0 mg/kg/injection, schedule: Q01DX001 (ip), vehicle: saline",102 % of control and 104 % of control and 110 % of control
same,T/C,[5],109 % of control
same,T/C,[6],96 % of control and 103 % of control and 110 % of control
same,T/C,[7],103 % of control and 113 % of control and 117 % of control
O=P(NC12CC3CC(CC(C3)C1)C2)(N1CC1)N1CC1,T/C,"dose: 2.25 mg/kg/injection, schedule: Q01DX005 (ip), vehicle: Klucel (hydroxypropylcellulose) (HPC)",108 % of control and 113 % of control
same,T/C,"dose: 4.5 mg/kg/injection, schedule: Q01DX005 (ip), vehicle: Klucel (hydroxypropylcellulose) (HPC)",111 % of control and 117 % of control
same,T/C,"dose: 9.0 mg/kg/injection, schedule: Q01DX005 (ip), vehicle: Klucel (hydroxypropylcellulose) (HPC)",123 % of control
same,T/C,"dose: 18.0 mg/kg/injection, schedule: Q01DX005 (ip), vehicle: Klucel (hydroxypropylcellulose) (HPC)",123 % of control
CC[C@H]1CN2CCc3cc(OC)c(OC)cc3[C@@H]2C[C@@H]1C[C@H]1NCCc2cc(OC)c(OC)cc21,T/C,[1],100 % of control and 104 % of control
same,T/C,[2],99 % of control and 105 % of control
same,T/C,"dose: 8.0 mg/kg/injection, schedule: Q01DX005 (ip), vehicle: Klucel (hydroxypropylcellulose) (HPC)",105 % of control and 117 % of control
C1CCC2C[N-]CCC2C1.C1CCC2C[N-]CCC2C1.C1CCC2C[N-]CCC2C1.C1CCC2C[N-]CCC2C1.[Cl][Rh][Cl] (stereo not given),T/C,"dose: 2.0 mg/kg/injection, schedule: Q01DX005 (ip), vehicle: dextrose",102 % of control
same,T/C,"dose: 4.0 mg/kg/injection, schedule: Q01DX005 (ip), vehicle: dextrose",117 % of control
ClC1=C(Cl)C2(Cl)C3C(Cl)C(Cl)CC3C1(Cl)C2(Cl)Cl (stereo not given),T/C,"dose: 6.0 mg/kg/injection, schedule: Q01DX005 (ip), vehicle: saline with Tween-80",99 % of control and 100 % of control and 105 % of control
same,T/C,"dose: 6.25 mg/kg/injection, schedule: Q01DX005 (ip), vehicle: other",101 % of control
same,T/C,"dose: 12.0 mg/kg/injection, schedule: Q01DX005 (ip), vehicle: saline with Tween-80",95 % of control and 96 % of control and 105 % of control
same,T/C,"dose: 12.5 mg/kg/injection, schedule: Q01DX005 (ip), vehicle: other",108 % of control
same,T/C,"dose: 24.0 mg/kg/injection, schedule: Q01DX005 (ip), vehicle: saline with Tween-80",96 % of control and 105 % of control and 87 % of control
same,T/C,"dose: 25.0 mg/kg/injection, schedule: Q01DX005 (ip), vehicle: other",98 % of control
same,T/C,"dose: 45.0 mg/kg/injection, schedule: Q01DX005 (ip), vehicle: saline with Tween-80",94 % of control and 101 % of control and 110 % of control
same,T/C,"dose: 50.0 mg/kg/injection, schedule: Q01DX005 (ip), vehicle: other",109 % of control
same,T/C,"dose: 90.0 mg/kg/injection, schedule: Q01DX005 (ip), vehicle: saline with Tween-80",101 % of control and 86 % of control and 89 % of control
